Assay results taken from paper PMC7865522, “Analyzing Kinase Similarity in Small Molecule and Protein Structural Space to Explore the Limits of Multi-Target Screening” (Molecules, 2021).

What was measured:
BRAF [1] = biological target: T1, BRAF (Homo sapiens, UniProt P15056); assay: DiscoverX KINOMEscan competition binding assay; details: compound 10 µM; lower values = higher affinity; below 35% = significant binding
T1 construct: purchased DiscoverX (KINOMEscan service); host or cells: E. coli BL21-derived host (T7 phage) or HEK-293
Outline: (§1)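 Competition binding: compound 10 µM, kinase plus ligand-coated streptavidin beads, 20% SeaBlock/0.17x PBS/0.05% Tween 20/6 mM DTT, 1 h RT. Beads washed, kinase eluted with 0.5 µM free affinity ligand, qPCR read-out. Reported as % control.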

CDK2 = biological target: T2, CDK2 (Homo sapiens, UniProt P24941); assay: DiscoverX KINOMEscan competition binding assay; details: compound 10 µM; lower values = higher affinity; below 35% = significant binding
T2 construct: purchased DiscoverX (KINOMEscan service); host or cells: E. coli BL21-derived host (T7 phage) or HEK-293
Outline: as §1

EGFR [2] = biological target: T3, EGFR (Homo sapiens, UniProt P00533); assay: DiscoverX KINOMEscan competition binding assay; details: compound 10 µM; lower values = higher affinity; below 35% = significant binding
T3 construct: purchased DiscoverX (KINOMEscan service); host or cells: E. coli BL21-derived host (T7 phage) or HEK-293
Outline: as §1

ErbB2 [3] = biological target: T4, ErbB2 (Homo sapiens, UniProt P04626); assay: DiscoverX KINOMEscan competition binding assay; details: compound 10 µM; lower values = higher affinity; below 35% = significant binding
T4 construct: purchased DiscoverX (KINOMEscan service); host or cells: E. coli BL21-derived host (T7 phage) or HEK-293
Outline: as §1

LCK = biological target: T5, LCK (Homo sapiens, UniProt P06239); assay: DiscoverX KINOMEscan competition binding assay; details: compound 10 µM; lower values = higher affinity; below 35% = significant binding
T5 construct: purchased DiscoverX (KINOMEscan service); host or cells: E. coli BL21-derived host (T7 phage) or HEK-293
Outline: as §1

MET = biological target: T6, MET (Homo sapiens, UniProt P08581); assay: DiscoverX KINOMEscan competition binding assay; details: compound 10 µM; lower values = higher affinity; below 35% = significant binding
T6 construct: purchased DiscoverX (KINOMEscan service); host or cells: E. coli BL21-derived host (T7 phage) or HEK-293
Outline: as §1

VEGFR2 = biological target: T7, VEGFR2 (Homo sapiens, UniProt P35968); assay: DiscoverX KINOMEscan competition binding assay; details: compound 10 µM; lower values = higher affinity; below 35% = significant binding
T7 construct: purchased DiscoverX (KINOMEscan service); host or cells: E. coli BL21-derived host (T7 phage) or HEK-293
Outline: as §1

p38α = biological target: T8, p38α (Homo sapiens, UniProt Q16539); assay: DiscoverX KINOMEscan competition binding assay; details: compound 10 µM; lower values = higher affinity; below 35% = significant binding
T8 construct: purchased DiscoverX (KINOMEscan service); host or cells: E. coli BL21-derived host (T7 phage) or HEK-293
Outline: as §1

BRAF [4] = biological target: T1, BRAF; assay: Eurofins in vitro kinase inhibition assay; format: biochemical; details: compound 20 µM; mean (SD); above 50% significant, 25-50% weak
Outline: (§2)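 Compounds at 20 µM were incubated with kinase, ATP and a substrate analog, and phosphorylation was measured; for PI3K, HTRF detected displacement of biotinylated PIP3 from a PIP3-binding complex by PIP3 formed from PIP2. Values are % inhibition of control activity, mean (SD).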

EGFR [5] = biological target: T3, EGFR; assay: Eurofins in vitro kinase inhibition assay; format: biochemical; details: compound 20 µM; mean (SD); above 50% significant, 25-50% weak
Outline: as §2

ErbB2 [6] = biological target: T4, ErbB2; assay: Eurofins in vitro kinase inhibition assay; format: biochemical; details: compound 20 µM; mean (SD); above 50% significant, 25-50% weak
Outline: as §2

PI3K [7] = biological target: T9, PI3K (Homo sapiens, UniProt P42336); assay: Eurofins in vitro kinase inhibition assay (HTRF, PIP3 displacement); format: biochemical; design: purchased Eurofins Cerep (contract assay); details: compound 20 µM; mean (SD); above 50% significant, 25-50% weak
Outline: as §2

PI3K [8] = biological target: T9, PI3K; assay: DiscoverX KINOMEscan competition binding assay; design: purchased DiscoverX (KINOMEscan service); host or cells: E. coli BL21-derived host (T7 phage) or HEK-293; details: compound 10 µM; lower values = higher affinity; below 35% = significant binding
Outline: as §1
Target sequence in this assay (P42336 whole entry): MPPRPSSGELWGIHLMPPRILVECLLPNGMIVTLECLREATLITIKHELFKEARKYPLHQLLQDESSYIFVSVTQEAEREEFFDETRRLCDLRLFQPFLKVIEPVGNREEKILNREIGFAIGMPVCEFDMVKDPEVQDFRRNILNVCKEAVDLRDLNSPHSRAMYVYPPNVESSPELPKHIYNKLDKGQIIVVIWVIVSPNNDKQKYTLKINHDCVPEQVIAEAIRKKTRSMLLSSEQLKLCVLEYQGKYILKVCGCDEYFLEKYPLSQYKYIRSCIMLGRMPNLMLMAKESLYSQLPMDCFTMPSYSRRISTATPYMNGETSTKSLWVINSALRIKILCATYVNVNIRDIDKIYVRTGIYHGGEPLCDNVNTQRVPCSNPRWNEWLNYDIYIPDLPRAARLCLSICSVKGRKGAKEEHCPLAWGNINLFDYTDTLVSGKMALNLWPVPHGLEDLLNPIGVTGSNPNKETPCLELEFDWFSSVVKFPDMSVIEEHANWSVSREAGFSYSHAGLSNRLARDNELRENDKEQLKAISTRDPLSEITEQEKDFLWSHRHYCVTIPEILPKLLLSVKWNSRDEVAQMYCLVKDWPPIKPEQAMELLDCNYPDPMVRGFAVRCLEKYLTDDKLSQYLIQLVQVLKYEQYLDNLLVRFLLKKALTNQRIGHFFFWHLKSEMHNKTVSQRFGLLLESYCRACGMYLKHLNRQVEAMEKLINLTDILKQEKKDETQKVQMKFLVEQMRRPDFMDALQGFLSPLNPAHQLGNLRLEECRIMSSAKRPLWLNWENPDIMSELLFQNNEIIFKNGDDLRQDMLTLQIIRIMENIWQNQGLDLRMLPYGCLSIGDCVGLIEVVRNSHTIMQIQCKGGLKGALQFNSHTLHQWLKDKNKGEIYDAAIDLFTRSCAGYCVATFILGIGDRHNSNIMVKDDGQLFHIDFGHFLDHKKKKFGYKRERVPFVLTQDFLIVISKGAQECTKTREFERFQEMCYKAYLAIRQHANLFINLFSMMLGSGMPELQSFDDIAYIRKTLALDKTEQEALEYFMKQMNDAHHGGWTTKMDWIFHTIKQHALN

panel of 290 kinases = biological target: panel of 290 kinases; design: method as in PMID 18183025; details: cited from earlier work

T4 sequence (P04626 23-1255): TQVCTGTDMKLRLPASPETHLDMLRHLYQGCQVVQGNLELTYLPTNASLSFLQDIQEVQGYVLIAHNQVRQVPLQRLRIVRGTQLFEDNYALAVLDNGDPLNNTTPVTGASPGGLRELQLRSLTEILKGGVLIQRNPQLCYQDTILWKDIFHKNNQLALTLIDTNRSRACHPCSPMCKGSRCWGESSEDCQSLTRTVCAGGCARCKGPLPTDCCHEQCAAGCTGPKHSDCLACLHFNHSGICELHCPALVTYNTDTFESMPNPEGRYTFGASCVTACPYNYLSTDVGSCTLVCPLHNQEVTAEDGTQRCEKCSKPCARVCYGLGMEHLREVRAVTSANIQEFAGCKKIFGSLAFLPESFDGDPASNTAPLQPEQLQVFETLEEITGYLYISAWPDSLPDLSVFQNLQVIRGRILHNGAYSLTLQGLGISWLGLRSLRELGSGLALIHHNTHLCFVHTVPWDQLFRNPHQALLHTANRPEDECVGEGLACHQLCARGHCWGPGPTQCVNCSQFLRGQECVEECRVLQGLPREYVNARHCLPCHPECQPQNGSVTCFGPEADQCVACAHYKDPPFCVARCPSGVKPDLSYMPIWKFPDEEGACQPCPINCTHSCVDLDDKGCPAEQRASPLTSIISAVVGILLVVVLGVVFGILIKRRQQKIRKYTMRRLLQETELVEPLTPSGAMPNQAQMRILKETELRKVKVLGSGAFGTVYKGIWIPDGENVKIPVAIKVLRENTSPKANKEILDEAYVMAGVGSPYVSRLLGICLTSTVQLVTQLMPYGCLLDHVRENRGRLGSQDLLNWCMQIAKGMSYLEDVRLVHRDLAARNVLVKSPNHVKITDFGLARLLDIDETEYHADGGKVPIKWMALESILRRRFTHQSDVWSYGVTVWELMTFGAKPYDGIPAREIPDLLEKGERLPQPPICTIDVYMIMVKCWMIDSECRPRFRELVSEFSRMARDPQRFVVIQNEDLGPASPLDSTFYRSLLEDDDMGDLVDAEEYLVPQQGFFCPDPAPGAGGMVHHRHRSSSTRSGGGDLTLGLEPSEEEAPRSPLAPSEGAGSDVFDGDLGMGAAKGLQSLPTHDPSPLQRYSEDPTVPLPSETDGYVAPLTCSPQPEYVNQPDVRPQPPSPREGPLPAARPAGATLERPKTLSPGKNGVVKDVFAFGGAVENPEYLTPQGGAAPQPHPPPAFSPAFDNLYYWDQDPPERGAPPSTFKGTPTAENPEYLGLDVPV
T6 sequence (P08581 25-1390): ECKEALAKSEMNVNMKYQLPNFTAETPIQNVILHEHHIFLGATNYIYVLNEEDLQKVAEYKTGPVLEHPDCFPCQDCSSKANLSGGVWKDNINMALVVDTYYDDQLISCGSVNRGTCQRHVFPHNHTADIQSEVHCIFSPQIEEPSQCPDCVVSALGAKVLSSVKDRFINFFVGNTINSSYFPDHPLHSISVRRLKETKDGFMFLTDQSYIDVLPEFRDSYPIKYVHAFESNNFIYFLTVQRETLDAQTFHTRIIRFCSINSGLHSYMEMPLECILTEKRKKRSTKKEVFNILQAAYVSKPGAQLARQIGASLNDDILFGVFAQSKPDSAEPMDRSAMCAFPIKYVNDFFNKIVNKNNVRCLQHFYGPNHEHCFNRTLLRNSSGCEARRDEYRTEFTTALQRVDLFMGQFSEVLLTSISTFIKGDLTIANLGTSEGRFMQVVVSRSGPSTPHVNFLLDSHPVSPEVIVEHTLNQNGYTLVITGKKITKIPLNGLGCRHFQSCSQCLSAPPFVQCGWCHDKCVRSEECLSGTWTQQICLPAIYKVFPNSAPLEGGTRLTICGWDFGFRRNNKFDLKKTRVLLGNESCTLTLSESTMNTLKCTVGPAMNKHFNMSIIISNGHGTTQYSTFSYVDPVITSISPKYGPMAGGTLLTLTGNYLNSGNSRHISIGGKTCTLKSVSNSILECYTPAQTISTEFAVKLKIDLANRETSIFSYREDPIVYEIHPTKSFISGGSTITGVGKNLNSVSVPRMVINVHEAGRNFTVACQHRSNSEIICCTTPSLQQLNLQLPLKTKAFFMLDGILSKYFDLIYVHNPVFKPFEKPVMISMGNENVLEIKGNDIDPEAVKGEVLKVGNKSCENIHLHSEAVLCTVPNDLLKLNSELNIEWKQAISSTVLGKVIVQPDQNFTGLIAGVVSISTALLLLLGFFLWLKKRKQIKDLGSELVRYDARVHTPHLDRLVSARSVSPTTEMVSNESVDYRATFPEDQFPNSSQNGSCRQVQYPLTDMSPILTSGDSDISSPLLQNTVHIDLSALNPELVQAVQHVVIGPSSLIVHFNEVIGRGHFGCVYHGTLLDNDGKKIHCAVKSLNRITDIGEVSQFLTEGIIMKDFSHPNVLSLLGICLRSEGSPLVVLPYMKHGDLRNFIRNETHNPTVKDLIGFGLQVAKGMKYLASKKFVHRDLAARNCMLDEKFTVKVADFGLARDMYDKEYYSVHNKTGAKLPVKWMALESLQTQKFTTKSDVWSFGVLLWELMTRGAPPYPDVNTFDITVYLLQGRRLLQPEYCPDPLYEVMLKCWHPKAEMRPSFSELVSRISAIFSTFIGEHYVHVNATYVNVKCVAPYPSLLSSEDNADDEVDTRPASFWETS
T7 sequence (P35968 20-1356): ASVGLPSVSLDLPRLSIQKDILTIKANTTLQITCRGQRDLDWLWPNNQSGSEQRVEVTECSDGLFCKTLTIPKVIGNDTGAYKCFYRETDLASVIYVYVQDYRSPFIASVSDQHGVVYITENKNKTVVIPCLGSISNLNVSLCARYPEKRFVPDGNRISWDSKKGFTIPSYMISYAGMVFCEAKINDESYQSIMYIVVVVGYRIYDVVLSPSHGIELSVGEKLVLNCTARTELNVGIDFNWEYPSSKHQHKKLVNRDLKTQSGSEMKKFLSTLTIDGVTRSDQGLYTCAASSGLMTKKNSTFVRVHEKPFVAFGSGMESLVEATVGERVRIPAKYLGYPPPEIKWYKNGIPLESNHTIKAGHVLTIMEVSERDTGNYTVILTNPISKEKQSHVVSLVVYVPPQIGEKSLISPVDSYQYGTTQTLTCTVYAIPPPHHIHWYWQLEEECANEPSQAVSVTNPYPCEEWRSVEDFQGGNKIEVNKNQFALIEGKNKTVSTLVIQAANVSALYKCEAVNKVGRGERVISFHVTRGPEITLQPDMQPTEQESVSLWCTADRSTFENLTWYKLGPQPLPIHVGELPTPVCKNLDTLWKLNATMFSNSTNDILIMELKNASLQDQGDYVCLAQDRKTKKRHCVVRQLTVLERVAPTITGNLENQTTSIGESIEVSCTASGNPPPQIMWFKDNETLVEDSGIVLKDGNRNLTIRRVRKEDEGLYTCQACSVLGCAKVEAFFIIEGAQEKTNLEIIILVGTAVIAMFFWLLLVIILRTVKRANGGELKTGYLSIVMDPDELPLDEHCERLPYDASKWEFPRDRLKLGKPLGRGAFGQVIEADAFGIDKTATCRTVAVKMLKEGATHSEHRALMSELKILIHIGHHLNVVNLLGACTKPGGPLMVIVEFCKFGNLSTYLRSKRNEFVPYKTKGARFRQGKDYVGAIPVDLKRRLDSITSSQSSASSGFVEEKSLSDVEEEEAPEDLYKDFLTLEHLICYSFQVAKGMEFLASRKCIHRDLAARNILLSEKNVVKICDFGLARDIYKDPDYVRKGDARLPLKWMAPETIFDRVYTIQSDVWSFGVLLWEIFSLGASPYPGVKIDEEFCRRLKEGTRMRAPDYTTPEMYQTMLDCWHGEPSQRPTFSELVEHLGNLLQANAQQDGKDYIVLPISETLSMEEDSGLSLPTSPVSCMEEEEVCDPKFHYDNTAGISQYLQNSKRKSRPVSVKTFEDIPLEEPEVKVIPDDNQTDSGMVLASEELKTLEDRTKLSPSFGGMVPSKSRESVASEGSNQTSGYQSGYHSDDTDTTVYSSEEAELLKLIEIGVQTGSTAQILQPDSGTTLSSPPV

Compound: CC1(C)C2CC=C(COC(=O)c3cnn4cccnc34)C1C2 (stereo not drawn) [DS34376]
- % control, BRAF (DiscoverX) (BRAF [1]): 92 % control
- % control, CDK2 (DiscoverX) (CDK2): 99 % control
- % control, EGFR (DiscoverX) (EGFR [2]): 90 % control
- % control, ErbB2 (DiscoverX) (ErbB2 [3]): 100 % control
- % control, LCK (DiscoverX) (LCK): 100 % control
- % control, MET (DiscoverX) (MET): 100 % control
- % control, VEGFR2 (DiscoverX) (VEGFR2): 100 % control
- % control, p38α (DiscoverX) (p38α): 100 % control
- % inhibition of control activity, BRAF (Eurofins) (BRAF [4]): -11.3 (4.2) % inhibition
- % inhibition of control activity, EGFR (Eurofins) (EGFR [5]): 16.1 (7.5) % inhibition
- % inhibition of control activity, ErbB2 (Eurofins) (ErbB2 [6]): -1.6 (1.9) % inhibition
- % inhibition of control activity, PI3K (Eurofins) (PI3K [7]): -2 (0.8) % inhibition
- % control, PI3K (DiscoverX) (PI3K [8]): 100 % control

Compound: O=C(Cn1cnc2c(cnn2CCO)c1=O)NCc1ccccc1 [DS05168]
- % control, BRAF (DiscoverX) (BRAF [1]): 98 % control
- % control, CDK2 (DiscoverX) (CDK2): 99 % control
- % control, EGFR (DiscoverX) (EGFR [2]): 100 % control
- % control, ErbB2 (DiscoverX) (ErbB2 [3]): 100 % control
- % control, LCK (DiscoverX) (LCK): 95 % control
- % control, MET (DiscoverX) (MET): 94 % control
- % control, VEGFR2 (DiscoverX) (VEGFR2): 100 % control
- % control, p38α (DiscoverX) (p38α): 100 % control
- % inhibition of control activity, BRAF (Eurofins) (BRAF [4]): -12.4 (10.9) % inhibition
- % inhibition of control activity, EGFR (Eurofins) (EGFR [5]): 11.1 (1.8) % inhibition
- % inhibition of control activity, ErbB2 (Eurofins) (ErbB2 [6]): 2.8 (1.6) % inhibition
- % inhibition of control activity, PI3K (Eurofins) (PI3K [7]): -1 (1.6) % inhibition
- % control, PI3K (DiscoverX) (PI3K [8]): 100 % control

Compound: CCOCCCNC(=O)c1nc2c3c4c(sc3ncn2n1)CC[C@@H](C)C4 [DS82066]
- % control, BRAF (DiscoverX) (BRAF [1]): 83 % control
- % control, CDK2 (DiscoverX) (CDK2): 100 % control
- % control, EGFR (DiscoverX) (EGFR [2]): 92 % control
- % control, ErbB2 (DiscoverX) (ErbB2 [3]): 90 % control
- % control, LCK (DiscoverX) (LCK): 100 % control
- % control, MET (DiscoverX) (MET): 100 % control
- % control, VEGFR2 (DiscoverX) (VEGFR2): 100 % control
- % control, p38α (DiscoverX) (p38α): 93 % control
- % inhibition of control activity, BRAF (Eurofins) (BRAF [4]): -18.5 (1.8) % inhibition
- % inhibition of control activity, EGFR (Eurofins) (EGFR [5]): 12.6 (1.9) % inhibition
- % inhibition of control activity, ErbB2 (Eurofins) (ErbB2 [6]): -1.4 (0.8) % inhibition
- % inhibition of control activity, PI3K (Eurofins) (PI3K [7]): 3.6 (2.3) % inhibition
- % control, PI3K (DiscoverX) (PI3K [8]): 89 % control

Compound: COCCCNC(=O)c1nc2c3c4c(sc3ncn2n1)COC(C)(C)C4 [DS11689]
- % control, BRAF (DiscoverX) (BRAF [1]): 88 % control
- % control, CDK2 (DiscoverX) (CDK2): 100 % control
- % control, EGFR (DiscoverX) (EGFR [2]): 100 % control
- % control, ErbB2 (DiscoverX) (ErbB2 [3]): 99 % control
- % control, LCK (DiscoverX) (LCK): 100 % control
- % control, MET (DiscoverX) (MET): 99 % control
- % control, VEGFR2 (DiscoverX) (VEGFR2): 100 % control
- % control, p38α (DiscoverX) (p38α): 100 % control
- % inhibition of control activity, BRAF (Eurofins) (BRAF [4]): -8.3 (20.8) % inhibition
- % inhibition of control activity, EGFR (Eurofins) (EGFR [5]): 18.1 (7.9) % inhibition
- % inhibition of control activity, ErbB2 (Eurofins) (ErbB2 [6]): 0.1 (2.1) % inhibition
- % inhibition of control activity, PI3K (Eurofins) (PI3K [7]): -0.2 (0.4) % inhibition
- % control, PI3K (DiscoverX) (PI3K [8]): 99 % control

Compound: Cc1nc(Nc2ncc(C(=O)Nc3c(C)cccc3Cl)s2)cc(N2CCN(CCO)CC2)n1 [dasatinib]
- kinase binding spectrum (panel of 290 kinases; TKs): binds to a broad spectrum of TKs with high affinity

Compound: O=C(O)c1cncnc1NCc1nc(-c2cnccn2)n[nH]1 [DS74417]
- % control, BRAF (DiscoverX) (BRAF [1]): 86 % control
- % control, CDK2 (DiscoverX) (CDK2): 100 % control
- % control, EGFR (DiscoverX) (EGFR [2]): 89 % control
- % control, ErbB2 (DiscoverX) (ErbB2 [3]): 100 % control
- % control, LCK (DiscoverX) (LCK): 100 % control
- % control, MET (DiscoverX) (MET): 100 % control
- % control, VEGFR2 (DiscoverX) (VEGFR2): 100 % control
- % control, p38α (DiscoverX) (p38α): 100 % control
- % inhibition of control activity, BRAF (Eurofins) (BRAF [4]): -0.3 (1.6) % inhibition
- % inhibition of control activity, EGFR (Eurofins) (EGFR [5]): 18 (3.2) % inhibition
- % inhibition of control activity, ErbB2 (Eurofins) (ErbB2 [6]): -2.8 (0.7) % inhibition
- % inhibition of control activity, PI3K (Eurofins) (PI3K [7]): 2.1 (0.4) % inhibition
- % control, PI3K (DiscoverX) (PI3K [8]): 97 % control

Compound: CC(C)n1ccc(=O)nc1SC1CCN(c2ccccc2F)C1=O (stereo not drawn) [DS99367]
- % control, BRAF (DiscoverX) (BRAF [1]): 100 % control
- % control, CDK2 (DiscoverX) (CDK2): 100 % control
- % control, EGFR (DiscoverX) (EGFR [2]): 93 % control
- % control, ErbB2 (DiscoverX) (ErbB2 [3]): 100 % control
- % control, LCK (DiscoverX) (LCK): 100 % control
- % control, MET (DiscoverX) (MET): 87 % control
- % control, VEGFR2 (DiscoverX) (VEGFR2): 100 % control
- % control, p38α (DiscoverX) (p38α): 91 % control
- % inhibition of control activity, BRAF (Eurofins) (BRAF [4]): -19.6 (11.8) % inhibition
- % inhibition of control activity, EGFR (Eurofins) (EGFR [5]): 17.3 (0.1) % inhibition
- % inhibition of control activity, ErbB2 (Eurofins) (ErbB2 [6]): -3.3 (0.5) % inhibition
- % inhibition of control activity, PI3K (Eurofins) (PI3K [7]): 1.4 (0.1) % inhibition
- % control, PI3K (DiscoverX) (PI3K [8]): 100 % control

Compound: CC(=O)c1cc(CC(=O)N(C)C[C@H]2CCCCO2)cs1 [DS84326]
- % control, BRAF (DiscoverX) (BRAF [1]): 100 % control
- % control, CDK2 (DiscoverX) (CDK2): 100 % control
- % control, EGFR (DiscoverX) (EGFR [2]): 100 % control
- % control, ErbB2 (DiscoverX) (ErbB2 [3]): 97 % control
- % control, LCK (DiscoverX) (LCK): 100 % control
- % control, MET (DiscoverX) (MET): 95 % control
- % control, VEGFR2 (DiscoverX) (VEGFR2): 100 % control
- % control, p38α (DiscoverX) (p38α): 90 % control
- % inhibition of control activity, BRAF (Eurofins) (BRAF [4]): -8.2 (13.6) % inhibition
- % inhibition of control activity, EGFR (Eurofins) (EGFR [5]): 23.4 (0.6) % inhibition
- % inhibition of control activity, ErbB2 (Eurofins) (ErbB2 [6]): 0.2 (2.8) % inhibition
- % inhibition of control activity, PI3K (Eurofins) (PI3K [7]): 0.7 (0.8) % inhibition
- % control, PI3K (DiscoverX) (PI3K [8]): 100 % control

Compound: CCN(CC)CCNC(=O)c1c(C)[nH]c(/C=C2\C(=O)Nc3ccc(F)cc32)c1C [Sunitinib]
- fraction of kinases bound in a panel (panel of 290 kinases; panel of 290 kinases): more than 50%
